Legend:
[1] = biological target: T1, Psf3 (Pseudomonas syringae, UniProt I6R485); test: NADPH consumption at […] nm, Michaelis-Menten fit; assay type: biochemical; settings: 250 uM NADPH (saturating), 50 mM HEPES pH 7.5
T1 sequence (I6R485 1-295): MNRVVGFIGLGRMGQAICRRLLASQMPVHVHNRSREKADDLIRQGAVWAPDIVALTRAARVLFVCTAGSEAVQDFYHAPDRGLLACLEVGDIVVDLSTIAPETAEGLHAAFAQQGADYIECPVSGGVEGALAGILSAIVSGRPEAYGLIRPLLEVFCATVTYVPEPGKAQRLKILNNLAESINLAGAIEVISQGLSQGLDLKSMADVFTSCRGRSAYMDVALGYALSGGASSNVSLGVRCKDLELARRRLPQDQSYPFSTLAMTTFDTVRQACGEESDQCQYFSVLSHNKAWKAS

[2] = biological target: T1, Psf3; test: […] NMR of reverse; assay type: biochemical; settings: 2 mM NADP+, 1 mM (S)-2-HPP, pH 7.5, room temperature

Question: Which KM [1] does the source give for CC(=O)CP(=O)(O)O [2-OPP] here?
Answer: Its KM is “Kinetic parameters, with respect to 2-OPP and determined by monitoring the consumption of NADPH”.

Question: For C[C@H](O)CP(=O)(O)O [(S)-2-HPP], which “31P NMR of reverse (oxidation) reaction” value [2] is on record?
Answer: Its value is “reaction with (S)-2-HPP resulted in a new peak that is consistent with 2-OPP”.

Source: publication PMC5315633 (ACS chemical biology, 2016)
